# According to PubChem BioAssay (NCI):
#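 Cultured in 96-well plates, cells were exposed to test compound for 48 hours across five concentrations. Definition used: TGI = concentration required for complete inhibition of growth.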
# Assays:
# Test in all cases: inhibition of tumour cell growth, NCI panel, 48 h
# NCI-H522 lung = system: NCI-H522 lung
# CAKI-1 renal = system: CAKI-1 renal
# BT-549 breast = system: BT-549 breast
# U251 CNS = system: U251 CNS
# HCT-15 colon = system: HCT-15 colon
# MDA-MB-435 = system: MDA-MB-435
# SNB-75 CNS = system: SNB-75 CNS
# SN12C renal = system: SN12C renal
# MCF7 breast = system: MCF7 breast
# MDA-MB-231 breast = system: MDA-MB-231 breast
# SK-OV-3 ovarian = system: SK-OV-3 ovarian
# OVCAR-5 ovarian = system: OVCAR-5 ovarian
# SW-620 colon = system: SW-620 colon
# SR leukemia = system: SR leukemia
SMILES,TGI (NCI-H522 lung),TGI (CAKI-1 renal),TGI (BT-549 breast),TGI (U251 CNS),TGI (HCT-15 colon),TGI (MDA-MB-435),TGI (SNB-75 CNS),TGI (SN12C renal),TGI (MCF7 breast),TGI (MDA-MB-231 breast),TGI (SK-OV-3 ovarian),TGI (OVCAR-5 ovarian),TGI (SW-620 colon),TGI (SR leukemia)
Cn1c(=O)n(-c2c3ccccc3c(Cl)c3ccccc23)n(C(C)(C)C)c1=O,> 100 µM,> 100 µM,> 100 µM,> 100 µM,> 100 µM,> 100 µM,43.9 µM,> 100 µM,> 100 µM,> 100 µM,> 100 µM,> 100 µM,> 100 µM,–
O=[N+]([O-])C(/C(Cl)=C(/Cl)N1CCCCC1)=C1\NCCO1,–,> 100 µM,> 100 µM,> 100 µM,> 100 µM,> 100 µM,> 100 µM,> 100 µM,> 100 µM,> 100 µM,> 100 µM,> 100 µM,> 100 µM,–
Cc1cc(S(=O)(=O)Nc2nc(N)n(-c3cnc4ccccc4n3)n2)c(S)cc1Cl,> 100 µM,> 100 µM,> 100 µM,> 100 µM,> 100 µM,> 100 µM,> 100 µM,> 100 µM,> 100 µM,> 100 µM,> 100 µM,> 100 µM,> 100 µM,–
NC(=S)SCCC(=O)O,> 100 µM,> 100 µM,> 100 µM,> 100 µM,> 100 µM,> 100 µM,> 100 µM,> 100 µM,> 100 µM,> 100 µM,> 100 µM,> 100 µM,> 100 µM,–
CC1CC(N)=Nc2ccccc2N1Cc1ccccc1 (centres undefined),25.3 µM,25.2 µM,26 µM,28.4 µM,29.9 µM,26.8 µM,20.8 µM,30.2 µM,–,27.4 µM,25.9 µM,> 100 µM,25.2 µM,–
CCOC(=O)c1sc2nc(SC)nc(Nc3ccc4c(c3)OCCCO4)c2c1N,37.2 µM,> 100 µM,> 100 µM,> 100 µM,> 100 µM,> 100 µM,–,> 100 µM,> 100 µM,> 100 µM,> 100 µM,> 100 µM,> 100 µM,> 100 µM
Cc1ccc2c(c1)C(=O)/C(=C1/CCc3ccc(C)cc31)C2,> 100 µM,–,> 100 µM,> 100 µM,> 100 µM,> 100 µM,71.1 µM,> 100 µM,> 100 µM,> 100 µM,> 100 µM,> 100 µM,> 100 µM,> 100 µM
COC(=O)c1ccccc1C1CN=NC12Cc1c(C)cc(C)cc1C2=O (centres undefined),> 100 µM,> 100 µM,> 100 µM,> 100 µM,> 100 µM,> 100 µM,> 100 µM,> 100 µM,> 100 µM,> 100 µM,> 100 µM,> 100 µM,> 100 µM,–
Cc1[nH]c2c(C)ccc(C)c2c1CC(=O)O,62.1 µM,> 100 µM,> 100 µM,> 100 µM,> 100 µM,> 100 µM,–,> 100 µM,> 100 µM,76.3 µM,> 100 µM,> 100 µM,> 100 µM,–
